Patent publication US20060063759A1, “Tricyclic steroid hormone nuclear receptor modulators” (priority 2002, published 2006)

Columns and labels:
[1] = biological target: T1, human MR (Homo sapiens, UniProt P08235); assay: Mineralocorticoid Receptor Binding Assay ([3H]-aldosterone); details: [3H]-aldosterone binding, human MR expressed in Sf9 cells; read-out: MR Ki
T1 construct: The full length human MR gene is cloned from a human kidney or human brain cDNA library; His tag from the pAcHLT vector (own knowledge); made in house; host or cells: Sf9 insect cells (baculovirus, pAcHLT transfer vector)
T1 sequence (P08235 1-984): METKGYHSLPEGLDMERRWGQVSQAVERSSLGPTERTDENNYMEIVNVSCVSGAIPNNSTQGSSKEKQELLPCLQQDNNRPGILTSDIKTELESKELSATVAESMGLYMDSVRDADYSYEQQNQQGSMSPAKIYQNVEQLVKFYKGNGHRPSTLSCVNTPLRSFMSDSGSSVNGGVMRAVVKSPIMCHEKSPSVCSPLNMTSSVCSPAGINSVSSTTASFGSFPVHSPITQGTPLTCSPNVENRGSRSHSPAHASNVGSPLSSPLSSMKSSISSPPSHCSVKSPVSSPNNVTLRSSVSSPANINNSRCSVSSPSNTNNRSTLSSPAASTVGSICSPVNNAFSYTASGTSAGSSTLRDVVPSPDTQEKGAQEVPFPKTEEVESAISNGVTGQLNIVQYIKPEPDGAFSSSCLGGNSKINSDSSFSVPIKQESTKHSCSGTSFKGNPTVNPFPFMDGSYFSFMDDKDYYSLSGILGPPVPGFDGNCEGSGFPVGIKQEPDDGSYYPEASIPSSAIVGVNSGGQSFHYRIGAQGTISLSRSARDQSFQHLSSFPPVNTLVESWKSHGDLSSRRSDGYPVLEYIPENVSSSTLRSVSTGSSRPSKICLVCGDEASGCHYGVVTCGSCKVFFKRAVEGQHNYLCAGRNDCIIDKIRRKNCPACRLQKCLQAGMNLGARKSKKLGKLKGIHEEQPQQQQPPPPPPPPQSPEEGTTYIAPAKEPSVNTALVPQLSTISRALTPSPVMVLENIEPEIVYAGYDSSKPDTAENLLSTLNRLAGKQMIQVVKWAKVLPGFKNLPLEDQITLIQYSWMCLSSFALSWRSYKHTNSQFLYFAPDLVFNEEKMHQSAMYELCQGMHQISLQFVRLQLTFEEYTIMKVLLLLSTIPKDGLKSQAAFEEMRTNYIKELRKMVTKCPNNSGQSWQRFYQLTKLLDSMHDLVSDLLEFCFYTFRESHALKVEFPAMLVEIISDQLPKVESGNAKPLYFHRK
In short: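 Receptor source: freeze-thaw lysate of baculovirus-infected Sf9 cells carrying full-length human MR, 20-25 μg protein. Incubation ~16 h at 4 °C with shaking, pH 7.5 buffer containing 30 mM sodium molybdate and 10% glycerol.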

[2] = biological target: T2, glucocorticoid receptor (Homo sapiens, UniProt P04150); assay: Glucocorticoid Receptor Binding Assay ([3H]-dexamethasone, A549 cell extract); details: [3H]-dexamethasone binding, read-out: GR Ki
T2 construct: containing 50-200 ug of A549 cell extract and 1.86 nM [^3H]-dexamethasone; host or cells: A549 human lung epithelial cells (sonicated cell extract)
T2 sequence (P04150 1-777): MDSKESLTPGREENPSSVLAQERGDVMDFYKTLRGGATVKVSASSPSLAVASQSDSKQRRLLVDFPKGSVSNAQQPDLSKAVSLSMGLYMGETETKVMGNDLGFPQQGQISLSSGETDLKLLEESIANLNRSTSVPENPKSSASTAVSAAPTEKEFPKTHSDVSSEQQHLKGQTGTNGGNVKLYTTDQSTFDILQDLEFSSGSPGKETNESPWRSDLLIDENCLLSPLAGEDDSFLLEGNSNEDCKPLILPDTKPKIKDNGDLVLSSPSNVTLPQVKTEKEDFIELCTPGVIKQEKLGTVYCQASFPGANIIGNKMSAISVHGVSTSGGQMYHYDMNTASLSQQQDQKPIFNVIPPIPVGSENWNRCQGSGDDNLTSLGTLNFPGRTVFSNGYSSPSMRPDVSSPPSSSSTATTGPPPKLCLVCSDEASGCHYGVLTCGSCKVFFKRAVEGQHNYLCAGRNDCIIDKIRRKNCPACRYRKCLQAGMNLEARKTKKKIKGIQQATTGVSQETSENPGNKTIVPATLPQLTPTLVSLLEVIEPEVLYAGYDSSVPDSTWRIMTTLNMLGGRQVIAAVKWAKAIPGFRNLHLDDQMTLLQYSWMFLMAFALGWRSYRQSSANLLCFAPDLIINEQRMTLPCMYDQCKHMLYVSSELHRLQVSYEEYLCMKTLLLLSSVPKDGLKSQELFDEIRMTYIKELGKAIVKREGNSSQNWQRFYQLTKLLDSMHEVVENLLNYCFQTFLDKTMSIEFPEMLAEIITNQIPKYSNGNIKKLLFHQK
In short: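 Displacement of [3H]-dexamethasone (1.86 nM) from glucocorticoid receptor in sonicated A549 lung epithelial cell extracts, 16 h at 4 °C, pH 7.2 molybdate-containing buffer. Bound radioactivity was scintillation-counted after charcoal/dextran stripping of free ligand.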

SMILES | Ki [1] | Ki [2]
COC(=O)c1cccc(/C=C2/c3ccc(F)cc3CCc3ncccc32)c1 [Example 586] | < 500 nM | < 10000 nM
COC(=O)c1ccc(/C=C2/c3ccc(F)cc3CCc3ncccc32)cc1 [Example 587] | < 500 nM | < 10000 nM
COC(=O)c1ccccc1/C=C1\c2ccc(F)cc2CCc2ncccc21 [Example 588] | < 500 nM | < 500 nM
COC(=O)c1ccccc1/C=C1/c2ccc(F)cc2CCc2ncccc21 [Example 589] | < 500 nM | < 500 nM
Fc1ccc2c(c1)CCc1ncccc1/C2=C/c1cccc(C(F)(F)F)c1 [Example 590] | < 500 nM | < 1000 nM
N#Cc1ccc2c(n1)CCc1cc(F)ccc1/C2=C\c1ccc2[nH]c(=O)[nH]c2c1 [Example 591] | < 500 nM | < 10000 nM
CC(C)n1c(=O)[nH]c2cc(/C=C3\c4ccc(F)cc4CCc4ncccc43)ccc21 [Example 592] | < 500 nM | < 10000 nM
O=c1[nH]c2cc(/C=C3\c4ccc(F)cc4CCc4ncccc43)ccc2n1C1CC1 [Example 593] | < 500 nM | < 10000 nM
CS(=O)(=O)Nc1cc(F)cc(/C=C2/c3ccc(F)cc3CCc3nc(C(F)F)ccc32)c1 [Example 594] | < 500 nM | < 500 nM
CS(=O)(=O)Nc1cc(F)cc(/C=C2\c3ccc(F)cc3CCc3nc(C(F)F)ccc32)c1 [Example 595] | < 500 nM | < 500 nM
O=c1[nH]c2cc(/C=C3\c4ccc(F)cc4CCc4ncccc43)ccc2n1CCN1CCOCC1 [Example 596] | < 500 nM | < 10000 nM
CS(=O)(=O)Nc1cc(F)cc(/C=C2\c3ccc(F)cc3CCc3nc(CF)ccc32)c1 [Example 597] | < 500 nM | < 500 nM
CS(=O)(=O)Nc1cc(F)cc(/C=C2/c3ccc(F)cc3CCc3nc(CF)ccc32)c1 [Example 598] | < 500 nM | < 500 nM
CS(=O)(=O)Nc1cccc(C=C2c3ccccc3C3CC3c3ccccc32)c1 (stereo not drawn) [Example 602] | < 500 nM | < 500 nM
Nc1cccc(C=C2c3ccccc3[C@H]3C[C@H]3c3ccccc32)c1 [Example 604] | < 500 nM | < 1000 nM
O=c1[nH]c2cc(C=C3c4ccccc4C4CC4c4ccccc43)ccc2s1 (stereo not drawn) [Example 605] | < 500 nM | < 500 nM
O=c1[nH]c2cc(C=C3c4ccccc4[C@H]4C[C@H]4c4ccccc43)ccc2o1 [Example 606] | < 500 nM | < 500 nM
O=c1[nH]c2cc(/C=C3\c4ccccc4COc4cc(F)ccc43)ccc2n1CCN1CCOCC1 [Example 607, 5-(3-Fluoro-6H-dibenzo[b,e]oxepin-11-ylidenemethyl)-1-(2-morpholin-4-yl-ethyl)-1,3-dihydro-benzoimidazol-2-one] | < 500 nM | < 1000 nM
O=c1[nH]c2cc(/C=C3\c4ccccc4COc4cc(F)ccc43)ccc2n1CCCN1CCOCC1 [Example 608, 5-(3-fluoro-6H-dibenzo[b,e]oxepin-11-ylidenemethyl)-1-(3-morpholin-4-yl-propyl)-1,3-dihydro-benzoimidazol-2-one] | < 500 nM | < 10000 nM
O=c1[nH]c2cc(/C=C3\c4ccccc4COc4cc(F)ccc43)ccc2n1C1CC1 [Example 609, 1-cyclopropyl-5-(3-fluoro-6H-dibenzo[b,e]oxepin-11-ylidenemethyl)-1,3-dihydro-benzoimidazol-2-one] | < 500 nM | < 1000 nM

SMILES | Ki [1] | Ki [2]
CC(C)n1c(=O)[nH]c2cc(/C=C3\c4ccccc4COc4cc(F)ccc43)ccc21 [Example 612, 5-(3-Fluoro-6H-dibenzo[b,e]oxepin-11-ylidenemethyl)-1-isopropyl-1,3-dihydro-benzoimidazol-2-one] | < 500 nM | < 10000 nM
O=c1[nH]c2ccc(/C=C3\c4ccc(F)cc4COc4cc(F)ccc43)cc2[nH]1 [Example 613, 5-(3,8-Difluoro-6H-dibenzo[b,e]oxepin-11-ylidenemethyl)-1,3-dihydro-benzoimidazol-2-one] | < 500 nM | < 500 nM
O=c1[nH]c2ccc(/C=C3\c4ccccc4COc4cc(Cl)ccc43)cc2[nH]1 [Example 614, 5-(3-Chloro-6H-dibenzo[b,e]oxepin-11-ylidenemethyl)-1,3-dihydro-benzoimidazol-2-one] | < 500 nM | < 1000 nM
O=c1[nH]c2cc(/C=C3\c4ccc(F)cc4COc4cc(F)ccc43)ccc2n1CCN1CCOCC1 [Example 617, 5-(3,8-Difluoro-6H-dibenzo[b,e]oxepin-11-ylidenemethyl)-1-(2-morpholin-4-yl-ethyl)-1,3-dihydro-benzoimidazol-2-one] | < 500 nM | < 500 nM
O=c1[nH]c2cc(/C=C3/c4ccccc4COc4ccccc43)ccc2o1 [Example 619] | < 500 nM | < 500 nM
O=c1[nH]c2cc(/C=C3\c4ccccc4COc4ccccc43)ccc2o1 [Example 620] | < 500 nM | < 500 nM
CS(=O)(=O)Nc1cccc(/C=C2/c3ccccc3OCc3c(Cl)cccc32)c1 [Example 622] | < 500 nM | < 10000 nM
CS(=O)(=O)Nc1cc(F)cc(/C=C2\c3ccc(Cl)cc3COc3ccccc32)c1 [Example 623] | < 500 nM | < 500 nM
CS(=O)(=O)Nc1cc(F)cc(/C=C2/c3ccc(Cl)cc3COc3ccccc32)c1 [Example 624] | < 500 nM | < 500 nM
O=c1[nH]c2ccc(C=C3c4ccccc4COc4ccccc43)cc2[nH]1 [Example 626] | < 500 nM | < 10000 nM
Oc1cccc(/C=C2/c3ccccc3COc3cc(F)ccc32)c1 [Example 627] | < 500 nM | < 500 nM
Oc1cccc(/C=C2\c3ccccc3COc3cc(F)ccc32)c1 [Example 628] | < 500 nM | < 500 nM
CS(=O)(=O)Nc1cccc(/C=C2/c3ccccc3COc3cc(F)ccc32)c1 [Example 629] | < 500 nM | < 500 nM
CS(=O)(=O)Nc1cccc(/C=C2\c3ccccc3COc3cc(F)ccc32)c1 [Example 630] | < 500 nM | < 500 nM
O=c1[nH]c2cc(/C=C3/c4ccccc4COc4cc(F)ccc43)ccc2o1 [Example 632] | < 500 nM | < 500 nM
O=c1[nH]c2cc(/C=C3\c4ccccc4COc4cc(F)ccc43)ccc2o1 [Example 633] | < 500 nM | < 500 nM
Cn1c(=O)[nH]c2cc(/C=C3/c4ccccc4COc4cc(F)ccc43)ccc21 [Example 634] | < 500 nM | < 500 nM
Cn1c(=O)[nH]c2cc(/C=C3\c4ccccc4COc4cc(F)ccc43)ccc21 [Example 635] | < 500 nM | < 1000 nM
O=c1[nH]c2cc(/C=C3/c4ccccc4COc4cc(F)ccc43)ccc2s1 [Example 636] | < 500 nM | < 500 nM
